Measurements: US7241724B2, “Personal care compositions comprising alkyl phosphate surfactants and selected auxiliary surfactants” (priority 2005, dated 2007)

System: Zein protein
Experiment: Zein solubilization test (mildness)
Description: • 1. Prepare a 5 wt. % aqueous solution of the surfactant. If the natural pH of the system differs from that desired, adjust by incremental addition of acid or base. • 2. Mix 4 grams of Zein protein in 40 grams of the surfactant solution. Allow the mixture to stand at room temperature for 24 hours with frequent vigorous shaking. • 3. Filter the supernatant of the Zein/surfactant mixture using a syringe filter with a 0.45 micron Nylon membrane. Dilute the filtered solution 100-fold with 2% SDS solution (i.e., 0.1 gram filtered solution diluted in 10 grams of 2% SDS solution). As a reference, also prepare a diluted surfactant solution by mixing 0.1 grams of 5 wt. % surfactant solution with 10 grams of 2% SDS solution. • 4. The Zein concentration is determined using a UV/VIS spectrophotometer operated in the range 200-350 nm at a scanning rate of 800 nm/min, using a 2% SDS solution as the background. […] The Zein solubility in the 5 wt. % surfactant solution is C, times the dilution factor.
[…] Zein and surfactant were contacted for 24 hours.
Zein tests reported in Table V were all conducted at 45° C. rather than at room temperature.

## Sodium lauryl ether sulfate [SLES]
Table I, pH 6.0, 5% total surfactant solutions, Zein and surfactant contacted 24 hours
  Percent Zein Solubilized: 4.64%
Table II, comparators at pH 6.0
  Percent Zein Solubilized: 4.11%
Table IV, C12 MAP blended with other carboxylic acids, pH 5.0
  Percent Zein Solubilized: 3.52%
Table V, C12 MAP blended with fatty alcohols, pH 5.0, conducted at 45° C.
  Percent Zein Solubilized: 3.52%
Table VI, negative controls, strong acid auxiliary agents, pH 5.0
  Percent Zein Solubilized: 3.52%
Table VII, C12 MAP acid 60/40 weight ratio with auxiliary, combined 5% in water, amino acid counterion to pH 5, listed as 42
  Percent Zein Solubilized: 3.55%
Table VII, C12 MAP acid 60/40 weight ratio with auxiliary, combined 5% in water, amino acid counterion to pH 5, listed as 46
  Percent Zein Solubilized: 3.42%
